Here are results for five compounds from US20250382332A1, “NOVEL ALPHA-FACTOR BASED PEPTIDES WITH ANTIFUNGAL ACTIVITY” (INVAIO SCIENCES, INC., priority 2024, published 2025).

What is called Inhibition is the share of the control response that was lost under treatment.

For this assay, the system named is Botrytis cinerea (B05.10). The assay can be described thus: Resazurin antifungal assay of 180 alpha-factor peptide variants towards Botrytis (Example 2). Type of assay: cell-based. The settings on record: % inhibition of fungal growth, Botrytis conidia, resazurin; for Inhibition at 10 μM: peptide 10 μM; for Inhibition at 15 μM: peptide 15 μM; for Inhibition at 20 μM: peptide 20 μM; for Inhibition at 50 μM: peptide 50 μM; for Inhibition at 100 μM: peptide 100 μM. The method, boiled down: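 Resazurin viability read-out (570/620 nm fluorescence) after a 24 h, 20° C incubation of B05.10 conidia, 5000 per well, with peptide at final 10-100 μM. Growth inhibition (%) was derived by subtracting conidia-only fluorescence; four replicates per treatment.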

Peptide text beside a SMILES is read from it.

As to `CC[C@H](C)[C@H](NC(=O)[C@H](CCCCN)NC(=O)[C@H](CC(C)C)NC(=O)[C@H](Cc1ccccc1)NC(=O)[C@H](Cc1c[nH]cn1)NC(=O)[C@@H](N)CCCCN)C(=O)N[C@@H](CCCCN)C(=O)N1CCC[C@H]1C(=O)NCC(=O)N[C@@H](CCC(N)=O)C(=O)N1CCC[C@H]1C(=O)N[C@@H](CCSC)C(=O)N[C@@H](Cc1ccc(O)cc1)C(=O)O` [compound 86] (H-KHFLKIKPGQPMY-OH; N-terminus and C-terminus assumed), the “Inhibition at 10 μM” value is less than 90%, the “Inhibition at 15 μM” value is listed as less than 90%, the “Inhibition at 20 μM” value was 99.49% and the “Inhibition at 50 μM” value is recorded as 100%. For the same compound, the “Inhibition at 100 μM” value is recorded as 100%.

`CSCC[C@H](NC(=O)[C@@H]1CCCN1C(=O)[C@H](CCC(N)=O)NC(=O)CNC(=O)[C@@H]1CCCN1C(=O)[C@H](CCCCN)NC(=O)[C@H](Cc1ccccc1)NC(=O)[C@H](CCCCN)NC(=O)[C@H](CC(C)C)NC(=O)[C@@H](NC(=O)[C@H](Cc1c[nH]cn1)NC(=O)[C@@H](N)CCCCN)C(C)C)C(=O)N[C@@H](Cc1ccc(O)cc1)C(=O)O` [compound 87] (H-KHVLKFKPGQPMY-OH; N-terminus and C-terminus assumed): the “Inhibition at 10 μM” value is listed as less than 90%, the “Inhibition at 15 μM” value was less than 90%, the “Inhibition at 20 μM” value is 98.89% and the “Inhibition at 50 μM” value turned out to be 100%. Further, the “Inhibition at 100 μM” value is listed as 100%.

Regarding `CSCC[C@H](NC(=O)[C@@H]1CCCN1C(=O)[C@H](CCC(N)=O)NC(=O)CNC(=O)[C@@H]1CCCN1C(=O)[C@H](CCCCN)NC(=O)[C@H](CC(C)C)NC(=O)[C@H](CCCNC(=N)N)NC(=O)[C@H](CC(C)C)NC(=O)[C@H](CC(C)C)NC(=O)[C@H](Cc1c[nH]cn1)NC(=O)[C@@H](N)CCCCN)C(=O)N[C@@H](Cc1ccc(O)cc1)C(=O)O` [compound 88] (H-KHLLRLKPGQPMY-OH; N-terminus and C-terminus assumed), the “Inhibition at 10 μM” value was less than 90%, the “Inhibition at 20 μM” value is less than 90%, the “Inhibition at 50 μM” value stood at 99.75% and the “Inhibition at 100 μM” value amounted to 100%.

Consider `CC[C@H](C)[C@H](NC(=O)[C@H](CCCCN)NC(=O)[C@H](Cc1ccccc1)NC(=O)[C@H](CCC(=O)O)NC(=O)[C@H](CC(C)C)NC(=O)[C@H](CO)NC(=O)[C@H](Cc1c[nH]cn1)NC(=O)[C@@H](N)Cc1c[nH]c2ccccc12)C(=O)NCC(=O)N[C@@H](CCC(N)=O)C(=O)NCC(=O)N[C@@H](CCSC)C(=O)N[C@@H](Cc1ccc(O)cc1)C(=O)O` [compound 89] (H-WHSLEFKIGQGMY-OH; N-terminus and C-terminus assumed), for which the “Inhibition at 10 μM” value is given as less than 90%, the “Inhibition at 20 μM” value is given as less than 90%, the “Inhibition at 50 μM” value was 99.55% and the “Inhibition at 100 μM” value was found to be 100%.

With `CC[C@H](C)[C@H](NC(=O)[C@H](CCC(N)=O)NC(=O)[C@H](CC(C)C)NC(=O)[C@H](Cc1ccccc1)NC(=O)[C@H](Cc1c[nH]cn1)NC(=O)[C@@H](N)Cc1c[nH]c2ccccc12)C(=O)N[C@@H](CCCCN)C(=O)N1CCC[C@H]1C(=O)NCC(=O)N[C@@H](CCC(N)=O)C(=O)NCC(=O)N[C@@H](CCSC)C(=O)N[C@@H](Cc1ccc(O)cc1)C(=O)O` [compound 90] (H-WHFLQIKPGQGMY-OH; N-terminus and C-terminus assumed), the “Inhibition at 10 μM” value is reported as less than 90%, the “Inhibition at 20 μM” value is less than 90%, the “Inhibition at 50 μM” value came out at 99.27% and the “Inhibition at 100 μM” value is on record as 100%.
